# In patent publication US6657105B2 (Riken, priority 2000, dated 2003):
# System: Or-Prnp transgenic mice
# Details: mouse, in vivo, 4 mg/kg
compound,measurement,value
CN1[C@@H]2CC[C@H]1C[C@@H](OC(=O)C(CO)c1ccccc1)C2 (stereo partly shown) [atropine],abnormal waves in electrocardiogram after administration of heart stimulant,only Or-Prnp transgenic mice showed the abnormal waves in electrocardiogram
